Laboratory results taken from patent US10975118B2, “Crystalline dipeptides useful in the synthesis of elamipretide” (Stealth BioTherapeutics Corp., priority 2018, dated 2021).
Converted amounts (≈) assume the structure as drawn. Where a SMILES comes first, the peptide text is derived from it. [ ]: non-standard residue; d: D form. The star is where a group is joined. Dmt = Cc1cc(O)cc(C)c1C[C@H](N)C(=O)O; Boc = CC(C)(C)OC(=O)*

Key:
Assay type in all cases: physicochemical
[1] = Preliminary precipitation studies (MeOH/water); conditions: aqueous with cosolvent or surfactant or cyclodextrin, Normal addition, 10 mL/g, 25° C.
Source text: Preliminary Precipitation Studies (MeOH/Water) of Compound I: […]

[2] = In process precipitation results (MeOH/water); conditions: aqueous with cosolvent or surfactant or cyclodextrin
Source text: In Process Precipitation Results (MeOH/Water) of Compound I: […]

[3] = Preliminary single-solvent solubility, determined by HPLC (response curve)
Source text: Preliminary Single-Solvent Solubility of Compound I: […]

[4] = Stability and handling of the isolated zwitterionic form (statement); conditions: solid isolated from CH3OH/H2O with Na2CO3
Protocol: Preparation of the Zwitterionic Form of Compound II
[drawing 5] • 1. The crude HCl salt is suspended in CH3OH/H2O (1/1, v/v) • 2. The suspension is heated to 45-50° C. • 3. After the clear solution is formed, an aqueous solution of Na2CO3 (1.2 eq.) is added. During the addition, the solid begins to precipitate. • 4. The suspension is stirred for 1 h at 45° C., and then cooled to 15° C. and stirred for an additional hour. • 5. The solid is isolated by filtration and dried to provide Compound II with high purity (99.4 area %) by HPLC.
Formation of zwitterionic compound led to high purity material that was stable, easily handled, and highly crystalline.

CC(C)(C)OC(=O)NCCCC[C@H](N)C(=O)N[C@@H](Cc1ccccc1)C(N)=O [Compound I, L-Lys(Boc)-Phe-NH2]
solubility ([1]; Experiment 1, MeOH/Water 1:3): 7000 µg/mL (≈ 17.8 mM) | solubility ([1]; Experiment 2, MeOH/Water 1:5): 5000 µg/mL (≈ 12.7 mM) | solubility ([1]; Experiment 3, MeOH/Water 1:9): 3600 µg/mL (≈ 9.17 mM) | solubility ([1]; Experiment 4, MeOH/Water 1:19): 2700 µg/mL (≈ 6.88 mM) | solubility ([2]; Experiment 2447-41, MeOH/Water 1:9, 13 mL/g): 2500 µg/mL (≈ 6.37 mM) | solubility ([2]; Experiment 2447-47, MeOH/Water 1:5, 10 mL/g): 4200 µg/mL (≈ 10.7 mM) | solubility ([3]; organic solvent or mixture, solvent EtOH (SDAG-7)): 155000 µg/mL (≈ 394 mM) | solubility ([3]; organic solvent or mixture, solvent MeOAc): 18200 µg/mL (≈ 46.4 mM) | solubility ([3]; organic solvent or mixture, solvent THF): 84500 µg/mL (≈ 215 mM) | solubility ([3]; organic solvent or mixture, solvent iPrOAc): 5100 µg/mL (≈ 13 mM) | solubility ([3]; solvent Water): 4100 µg/mL (≈ 10.4 mM)

Cc1cc(O)cc(C)c1C[C@H](NC(=O)[C@@H](CCCNC(=N)N)NC(=O)OC(C)(C)C)C(=O)O [Compound II, Boc-D-Arg-DMT] (Boc-[dR]-[Dmt]-OH)
Stability of material [4]: stable
